Values joined by “and” are separate entries in the source; they are usually repeats but may differ in a detail not shown here. Identical values can stand only once.
What was measured:
[1] = Encapsulation of aripiprazole from Abilify (SBECD solution) into LUV, liquid/liquid protocol; type: physicochemical; details: LUV HSPC/Cholesterol/PEG-DSPE
Protocol: (§1) A portion of the lyophilized cake of GEODON® (Pfizer) was weighed out and dissolved in deionized water. The amount of the active ingredient (ziprasidone) was calculated by multiplying the cake weight by 0.0625 and added to liposomes from a 1 mg/mL solution. In certain experiments the lyophilized cake was reconstituted with the aqueous liposome preparation at defined lipid to drug ratios (liquid/liquid system). In other cases the lyophilized cake was directly rehydrated with the liposome suspension (liquid/solid system). The LUV were diluted with 5 mM Hepes, 10% sucrose pH 6.5. The liposome/drug solution was transferred to a 65° C. bath and swirled every 30 s for the first 3 min and then swirled every 5 min over a total heating time of 30 min. After heating for 30 min all samples were placed on ice for 15 min. the loaded liposomes were vortexed and 100 μL of sample was kept as the “before column” and the rest purified by ion exchange chromatography and gel filtration chromatography. Amberlite IRA-67 anion exchange resin was prepared by washing with 1N NaOH, followed by 3 washes with ddH2O and 3 washes with 3N HCl. The resin was exhaustively washed with dH2O until the pH of the supernatant was neutral. The SBCD was removed by adding 70 mg of resin to the eppendorf containing the liposomes and mixed well. The LUV solution was then purified by gel filtration chromatography (Sephadex G25) to remove residual extraliposomal drug. The turbid liposome fraction was collected and analyzed by HPLC.
ABILIFY® Injection is available in single-dose vials as a ready-to-use, 9.75 mg/1.3 mL (7.5 mg/mL) clear, colorless, sterile, aqueous solution for intramuscular use only. […] The active ingredient in Abilify® (Bristol-Myers), aripiprazole (7.5 mg/mL) was introduced to the LUV (HSPC/Cholesterol/PEG-DSPE: 3/2/0.15 mole ratio) at a drug to total lipid ratio of 50 g drug/mol HSPC (drug to total lipid ratio (wt/wt) of 0.12) or 100 g/mol (0.24 wt/wt) or 200 g/mol (0.48 wt/wt). […]

[2] = Loading of carfilzomib from the lyophilized Kyprolis vial into the core of added LUV; type: physicochemical
Protocol: A 30 mL preparation of LUVs composed of HSPC/Cholesterol/PEG2000-DSPE at lipid concentration of 15 mM lipid (circa 300 mg lipid) is prepared by the extrusion process through 100 nm polycarbonate membranes in a 250 mM ammonium sulfate solution to yield a 100 nm diameter LUV suspension of encapsulated ammonium sulfate. The LUV are dialyzed against 500 volumes of 0.15 M NaCl to remove non-encapsulated ammonium sulfate. The liposome suspension is then passed through a 0.2 micron sterile membrane into a sterile tube. The liposome solution (29 mL) is added aseptically to the vial containing 60 mg of carfilzomib at room temperature. The vial is gently mixed not shaken, for about 1 minute, or until the cake or powder is completely solubilized. The rehydrated solid is incubated for 40 minutes at 37° C. The carfilzomib is substantially loaded (>60%) into the core of the liposome at the end of the incubation period. The 100 nm diameter of the liposomes is not altered by this rehydration incubation process. The temperature of the vial is then reduced to 4° C. until the mixture of CD, drug-loaded liposome are injected into the subject.
The pharmacokinetic behavior of preparation of carfilzomib can be easily modulated by adjusting the amount of LUV containing ammonium sulfate or triethylamine sulfate that are added to the vial of Kyprolis®. […]

[3] = cited from earlier work
[4] = Incorporation of maropitant from Cerenia (SBCD) into lyophilized MLV with encapsulated triethylamine sulfate; type: physicochemical; details: MLV POPC/Chol/DSPG, 60° C. 30 minutes
Protocol: Maropitant citrate is used for the prevention of acute vomiting in dogs and cats. The MLV formulation described in example 4 is prepared with 250 mM triethylamine sulfate in place of ammonium sulfate. The formulation is lyophilized to provide a cake consisting of 120 mg sucrose and a 1.2 μmoles total lipid of a liposome with a lipid composition of POPC/Chol/DSPG mole ratio 3/2/0.15 with a higher concentration of triethylamine sulfate on the inside than on the outside. The contents of the 20 mL Cerenia® Injectable Solution vial which contains 10 mg maropitant, 63 mg sulphobutylether-beta-cyclodextrin, 3.3 mg meta-cresol per mL is slowly added to the vial of lyophilized liposomes and the vial is slowly rotated to rehydrate the MLV at room temperature. The milky white mixture is allowed to stand at 60° C. for 30 minutes. The percent of the maropitant that is incorporated into the liposome is about 60% of the total maropitant in the vial. […] Approximately 40% of the drug remains associated with the SBCD. This formulation is suitable for subcutaneous injection to prevent vomiting associated with chemotherapy.

[5] = Encapsulation of ziprasidone from Geodon (SBCD complex) into ammonium sulfate LUV liposomes, HPLC after purification; type: physicochemical; details: 65° C. 30 min; for % ziprasidone entrapped in liposome from suspension of ziprasidone: liquid/liquid system; for % ziprasidone entrapped in liposome from reconstitution of Geodon cake: liquid/solid system
Protocol: Alternatively, lipids were dissolved in ethanol at a concentration of 500 mM HSPC/Cholesterol/PEG-DSPE: 3/2/0.15 (591 mg/mL total lipid) at 65° C. and the 9 volumes of the trapping agent solution heated to 65° C. was added to the ethanol/lipid solution also at 65° C. and the mixture was vortexed and transferred to a 10 mL thermostatically controlled (65° C.) Lipex Extruder. The LUV were formed by extruding 10 times through polycarbonate membranes having 0.1 um pores. After extrusion the liposomes were cooled on ice. The transmembrane electrochemical gradient was formed by purification of the liposomes by dialysis in dialysis tubing having a molecular weight cut off of 12,000-14,000. The samples are dialyzed against 5 mM HEPES, 10% sucrose pH 6.5 (stirring at 4° C.) at volume that is 100 fold greater than the sample volume. The dialysate was changed after 2 h then 4 more times after 12 h each. The conductivity of the liposome solution was measured and was indistinguishable from the dialysis medium […].
The HPLC analysis of all other drugs used (such as ziprasidone, ariprazole, voriconazole etc) was performed on the same system as described for analysis of cholesterol. The mobile phase consists of −A=0.1% TFA, B=0.1% TFA/MeOH with a gradient elution starting at 40% B and increasing to 70% B in 7 min with 6 min equilibration back to 40% B. The flow rate is 1.0 mL/min, column temperature is 30 C, 10 μL injection and detection by absorbance at 254 nm. The retention times were as follows: ziprasidone 5.73 min, ariprazole 8.12 min, voriconazole 8.81 min.
as §1

[6] = Loading of hydroxypropyl cyclodextrin solubilized SN-38 into LUV containing acetate-PEI salt; type: physicochemical; details: LUV 20 mM total lipid, 12 hours at room temperature
Protocol: Lipids are dissolved in ethanol at a concentration of 500 mM POPC/Cholesterol/PEG-DSPE: 3/2/0.15 (591 mg/mL total lipid) at 65° C. and the 9 volumes of the trapping agent solution, polyethyleneimine (PEI) MW 1300 titrated to pH 7.4 with glacial acetic acid to form the acetate polyethyleneimine salt, is heated to 65° C. then added to the ethanol/lipid solution also at 65° C. This mixture is vortexed and transferred to a 10 mL thermostatically controlled (65° C.) Lipex Extruder. The LUV are formed by extruding 10 times through polycarbonate membranes having 0.1 um pores. After extrusion, the LUV are cooled on ice. A transmembrane electrochemical gradient is formed by placing the liposomes in dialysis tubing having a molecular weight cut off of 12,000-14,000. The samples are dialyzed against 5 mM HEPES, 10% sucrose pH 6.5 (stirring at 4° C.) at volume that is 100-fold greater than the liposome sample volume. The dialysate is changed after 2 h then 4 more times after 12 h each. The conductivity of the liposome solution was measured and was indistinguishable from the dialysis medium ˜40 μS/cm.
The LUV (20 mM total lipid containing a greater concentration of acetate-PEI salt on the inside than on the outside) are mixed with the hydroxypropyl cyclodextrin solubilized SN-38 (24 mg/mL hydroxylpropylcyclodextrin and 2 mg/mL SN-38) and allowed to incubate for 12 hours at room temperature. […]

[7] = input drug-to-lipid 100 ug/umol
[8] = input drug-to-lipid 200 ug/umol

O=C1CCc2ccc(OCCCCN3CCN(c4cccc(Cl)c4Cl)CC3)cc2N1 [aripiprazole]
% aripiprazole entrapped in liposome when transferred from Abilify ([1]; input drug-to-lipid 50 ug/umol): 60.16 ± 3.57% | % aripiprazole entrapped in liposome when transferred from Abilify [1, 7]: 48.4% and 48.36 ± 3.78% | % aripiprazole entrapped in liposome when transferred from Abilify [1, 8]: 43.2% and 43.22 ± 2.09%

CC(C)C[C@H](NC(=O)[C@H](CCc1ccccc1)NC(=O)CN1CCOCC1)C(=O)N[C@@H](Cc1ccccc1)C(=O)N[C@@H](CC(C)C)C(=O)[C@@]1(C)CO1 [carfilzomib]
carfilzomib loaded into the core of the liposome ([2]; Kyprolis vial 60 mg + 29 mL LUV (circa 300 mg lipid), ammonium sulfate, 40 minutes at 37° C.): > 60% | amount of carfilzomib that remains complexed to the CD, fraction of total amount in the vial ([2]; liposomes added decreased from 300 mg to 200 mg of total lipid): about one-half | solubility in water [3]: less than 10 micrograms/mL

COc1ccc(C(C)(C)C)cc1CN[C@H]1C2CCN(CC2)[C@H]1C(c1ccccc1)c1ccccc1 [maropitant]
percent of the drug remaining associated with the SBCD [4]: Approximately 40% | percent of the maropitant incorporated into the liposome, of total maropitant in the vial [4]: about 60% | resulting drug to lipid ratio [4]: about 140 grams/mole lipid

O=C1Cc2cc(CCN3CCN(c4nsc5ccccc45)CC3)c(Cl)cc2N1 [ziprasidone]
% ziprasidone entrapped in liposome from suspension of ziprasidone ([5]; input drug-to-lipid 50 ug/umol): 87.92 ± 2.35% | % ziprasidone entrapped in liposome from reconstitution of Geodon cake ([5]; input drug-to-lipid 50 ug/umol): 90.42 ± 2.91% | % ziprasidone entrapped in liposome from reconstitution of Geodon cake ([5]; input drug-to-lipid 50 ug/umol, listed as Geodon): 90.4% | % ziprasidone entrapped in liposome from suspension of ziprasidone [5, 7]: 84.24 ± 3.14% | % ziprasidone entrapped in liposome from reconstitution of Geodon cake [5, 7]: 75.50 ± 2.91% | % ziprasidone entrapped in liposome from reconstitution of Geodon cake ([5]; input drug-to-lipid 100 ug/umol, listed as Geodon): 75.5% | % ziprasidone entrapped in liposome from suspension of ziprasidone [5, 8]: 80.38 ± 3.61% | % ziprasidone entrapped in liposome from suspension of ziprasidone ([5]; input drug-to-lipid 200 ug/umol, listed as Geodon): 80.4% | % ziprasidone entrapped in liposome from reconstitution of Geodon cake [5, 8]: 62.68 ± 3.27% | % ziprasidone entrapped in liposome from reconstitution of Geodon cake ([5]; input drug-to-lipid 400 ug/umol): 67.40 ± 3.88% | % ziprasidone entrapped in liposome from reconstitution of Geodon cake ([5]; input drug-to-lipid 400 ug/umol, listed as Geodon): 67.4% | % ziprasidone entrapped in liposome from reconstitution of Geodon cake ([5]; input drug-to-lipid 800 ug/umol): 41.38 ± 0.81%

CCc1c2c(nc3ccc(O)cc13)-c1cc3c(c(=O)n1C2)COC(=O)[C@]3(O)CC [SN-38, 7-Ethyl-10-Hydroxy-Camptothecin]
SN-38 transferred into the liposome, % of the added SN-38 [6]: approximately 50%

From patent US20140220112A1, “TRANSFORMATION OF DRUG CYCLODEXTRIN COMPLEX COMPOSITIONS INTO COMPOSITIONS OF MIXTURES OF LIPID VESICLE ENCAPSULATED DRUG AND CYCLODEXTRIN DRUG COMPLEXES” (Zoneone Pharma, Inc., priority 2013, published 2014)
